Test results published in patent publication US20220214354A1, “MEANS AND METHODS FOR SINGLE MOLECULE PEPTIDE SEQUENCING” (VIB VZW, priority 2019, published 2022).
Entries after “also recorded” stand apart in the source; their conditions may differ.

Experiments:
[1] = NMR titration repeated with acetylated peptide; format: binding; conditions: same conditions as for NH2-Ala-Ala-Phe-amide; N-terminus acetylated
Procedure: The concept is based on the observation that 18-crown-6 ether derivatives can associate with protonated amines such as amino groups present at the N-termini of peptides or proteins (Yeh et al 2009 J Am Soc Mass Spectrom 20:385-393). To determine the exchange rate of the interaction between N-termini of polypeptides and 18-crown-6 ethers, an NMR study was performed. A model peptide (NH2-Ala-Ala-Phe-amide) was used in combination with the 18-crown-6 analogue triaza-trioxo-crown ether (TTC-ether; FIG. 3). The model peptide was designed with an N-terminal Ala to easily determine the shift of the N-terminal Ala methyl group upon binding to the TTC-ether. Solutions of the peptide were prepared in D2O/D-acetonitrile (3 ml/1 ml) with 10 mM D-acetic acid. A concentration of 100 μM peptide was maintained and mixed with varying concentrations of the TTC-ether. […]
A 2D-TOCSY (Total Correlation Spectroscopy) spectrum allows the identification of the position of the two methyl groups of both Ala residues around 1.25 ppm and 1.43 ppm. […] In order to retrieve information about the binding of the crown ether with the peptide, a titration was performed with different concentrations of the TTC-ether after which the shifts for the Ala methyl groups was measured at high resolution. Indeed, Ala-methyl shifts were observed when different TTC-ether/peptide ratios are measured (FIG. 4A). […]

[2] = test system: peptide array [AA1][AA2]GGNNGG; assay: Crown ether binding on PEPperPRINT peptide array (fluorescence intensity); conditions: crown ether 0.1 μg/μl in 0.1% triethanolamine in 50% ACN
Procedure: To study the binding of crown ethers to different peptides, a peptide array is used (PEPperPRINT array), containing an array of 400 peptides comprising peptides with all amino acid combinations at the first and second N-terminal position ([AA1][AA2]GGNNGG; four replicates of each peptide). After applying a fluorescently labeled crown ether (Cy5.5-dibenzo-18-crown-6), the relative affinity for all peptide substrates is determined by the fluorescence intensity on each peptide spot. The crown ether was applied on the peptide array at a concentration of 0.1 μg/μl in 0.1% triethanolamine in 50% ACN. After binding the array was washed two times for 10 sec using the same buffer. Finally, the fluorescence intensity was measured using a LI-COR Odyssey Imaging system. […] The large hydrophobic side chains of the second amino acid likely interact with the hydrophobic regions of the crown ether (crown ether benzene rings and/or cy5.5 fluorophore).

Substance | interaction with TTC-ether (NMR shifts) [1] | relative binding (fluorescence intensity), variable second amino acid ([2]; peptides with N-terminal glycine) | relative binding (fluorescence intensity), variable N-terminal amino acid ([2]; peptides with leucine at the second position)
Acetyl-Ala-Ala-Phe-amide | did not measure any noticeable interaction | – | –
Cy5.5-dibenzo-18-crown-6 | – | strongest on the peptides GFGGNNGG, GLGGNNGG, GYGGNNGG, GIGGNNGG, GKGGNNGG and GWGGNNGG | strongest on N-terminal glycine; also recorded: weakest on N-terminal proline
